Measurements from ChEMBL document CHEMBL4334494, “Recent advances in the targeting of human DNA ligase I as a potential new strategy for cancer treatment” (Eur J Med Chem, 2019).

Key:
DNA ligase 1 [1] = biological target: T1, DNA ligase 1 (Homo sapiens, UniProt P18858); test: Inhibition of human DNA ligase 1 at 25 uM using nicked DNA as substrate after 30 mins relative to control
DNA ligase 1 [2] = biological target: T1, DNA ligase 1; test: Inhibition of human DNA ligase 1 expressed in Escherichia coli BL21DE3RP cells at 50 uM using 52-mer DNA/25-mer DNA/27-mer DNA as substrate after 30 mins by Cyanin3 dye-based fluorescence assay relative to control
MDA-MB-231 = test: Antiproliferative activity against human MDA-MB-231 cells at 100 uM relative to control; type: functional
HCT-116 = test: Antiproliferative activity against human HCT116 cells at 100 uM relative to control; type: functional
DLD-1 = test: Antiproliferative activity against human DLD1 cells at 100 uM relative to control; type: functional
HEK293 = test: Cytotoxicity against HEK293 cells at 100 uM relative to control; type: cell-based; settings: human, hek293, 100 µM
A549 = test: Antiproliferative activity against human A549 cells at 100 uM relative to control; type: functional
HepG2 = test: Antiproliferative activity against human HepG2 cells at 100 uM relative to control; type: functional

T1 sequence (P18858 whole entry): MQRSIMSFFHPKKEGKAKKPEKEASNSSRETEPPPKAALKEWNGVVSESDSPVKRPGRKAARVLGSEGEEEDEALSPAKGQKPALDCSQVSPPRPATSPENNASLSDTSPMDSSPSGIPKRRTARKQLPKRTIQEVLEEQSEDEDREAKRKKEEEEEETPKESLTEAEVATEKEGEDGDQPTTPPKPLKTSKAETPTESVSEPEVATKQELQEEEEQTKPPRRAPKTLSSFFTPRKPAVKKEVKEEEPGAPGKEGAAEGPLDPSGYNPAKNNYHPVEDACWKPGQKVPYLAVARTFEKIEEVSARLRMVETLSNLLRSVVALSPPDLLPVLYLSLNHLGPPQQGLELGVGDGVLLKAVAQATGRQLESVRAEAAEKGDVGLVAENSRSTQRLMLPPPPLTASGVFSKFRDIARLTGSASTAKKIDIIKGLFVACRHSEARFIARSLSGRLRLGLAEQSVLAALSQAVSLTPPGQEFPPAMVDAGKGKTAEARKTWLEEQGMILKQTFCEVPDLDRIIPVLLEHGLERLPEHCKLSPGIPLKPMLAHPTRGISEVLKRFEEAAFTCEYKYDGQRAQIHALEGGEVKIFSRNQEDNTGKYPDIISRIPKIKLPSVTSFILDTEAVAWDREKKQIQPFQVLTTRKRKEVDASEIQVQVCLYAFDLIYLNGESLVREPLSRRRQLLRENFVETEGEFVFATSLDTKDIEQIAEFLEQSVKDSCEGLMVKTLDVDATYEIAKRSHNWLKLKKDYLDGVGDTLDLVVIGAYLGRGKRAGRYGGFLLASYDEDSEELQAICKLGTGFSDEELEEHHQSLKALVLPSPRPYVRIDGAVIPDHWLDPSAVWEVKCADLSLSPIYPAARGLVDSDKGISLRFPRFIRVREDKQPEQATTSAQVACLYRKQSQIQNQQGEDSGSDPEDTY

O=c1cc(/C=C/c2ccc([N+](=O)[O-])cc2)c2ccc3ccccc3c2o1
inhibition (DNA ligase 1 [1]): > 90%

Cc1ccccc1/C=C1\CN(C(=S)Nc2ccccc2)C/C(=C\c2ccccc2C)C1=O
inhibition (DNA ligase 1 [2]): > 75%

O=C1/C(=C/c2ccc(F)cc2)CN(c2nc(-c3ccccc3)cs2)C/C1=C\c1ccc(F)cc1
inhibition (DNA ligase 1 [2]): > 75%

CCOC(=O)C1=C(C)NC(=S)NC1c1cc(/C=N/NC(=S)Nc2ccccc2)c(O)c(C(C)(C)C)c1 (configuration not stated)
inhibition at 100 µM (MDA-MB-231): < 80%
inhibition at 100 µM (HCT-116): < 80%
inhibition at 100 µM (DLD-1): < 80%
Activity (HEK293): < 80%
inhibition at 100 µM (A549): < 80%
inhibition at 100 µM (HepG2): < 80%

COc1cccc2c1ccc1c(/C=C/c3ccc([N+](=O)[O-])cc3)cc(=O)oc12
inhibition (DNA ligase 1 [1]): > 90%

COc1cccc(/C=C/c2cc(=O)oc3c2ccc2ccccc23)c1
inhibition (DNA ligase 1 [1]): < 50%

COc1ccc(OC)c(/C=C/c2cc(=O)oc3c2ccc2ccccc23)c1
inhibition (DNA ligase 1 [1]): < 50%

COc1ccc(/C=C/c2cc(=O)oc3c2ccc2c(C)cccc23)cc1OC
inhibition (DNA ligase 1 [1]): < 50%

O=C1/C(=C/c2ccccc2F)CN(C(=S)NC(=O)c2ccccc2)C/C1=C\c1ccccc1F
inhibition (DNA ligase 1 [2]): > 75%

CCOC(=O)C1=C(C)NC(=O)NC1c1cc(C)c(O)c(/C=N/NC(=S)NC)c1 (configuration not stated)
inhibition at 100 µM (MDA-MB-231): > 80%
inhibition at 100 µM (HCT-116): > 80%
inhibition at 100 µM (DLD-1): > 80%
Activity (HEK293): > 80%
inhibition at 100 µM (A549): > 80%
inhibition at 100 µM (HepG2): > 80%

COc1ccc(/C=C2\CN(c3nc(-c4ccccc4)cs3)C/C(=C\c3ccc(OC)cc3)C2=O)cc1
inhibition (DNA ligase 1 [2]): > 75%

Cc1ccccc1/C=C1\CN(c2nc(-c3ccccc3)cs2)C/C(=C\c2ccccc2C)C1=O
inhibition (DNA ligase 1 [2]): > 75%

CCOC(=O)C1=C(C)NC(=O)NC1c1cc(C)c(O)c(/C=N/NC(N)=O)c1 (configuration not stated)
inhibition at 100 µM (MDA-MB-231): < 80%
inhibition at 100 µM (HCT-116): < 80%
inhibition at 100 µM (DLD-1): < 80%
Activity (HEK293): < 80%
inhibition at 100 µM (A549): < 80%
inhibition at 100 µM (HepG2): < 80%

COc1ccc(/C=C/c2cc(=O)oc3c2ccc2c(OC)cccc23)cc1OC
inhibition (DNA ligase 1 [1]): > 50%

CCOC(=O)C1=C(C)NC(=O)NC1c1cc(/C=N/NC(=O)Nc2ccc(Br)cc2)c(O)c(C(C)(C)C)c1 (configuration not stated)
inhibition at 100 µM (MDA-MB-231): > 80%
inhibition at 100 µM (HCT-116): > 80%
inhibition at 100 µM (DLD-1): > 80%
Activity (HEK293): > 80%
inhibition at 100 µM (A549): > 80%
inhibition at 100 µM (HepG2): > 80%

COc1ccc(/C=C/c2cc(=O)oc3c2ccc2c(OC)cccc23)c(OC)c1
inhibition (DNA ligase 1 [1]): < 50%

CCOC(=O)C1=C(C)NC(=O)NC1c1cc(/C=N/NC(=S)Nc2ccccc2)c(O)c(C(C)(C)C)c1 (configuration not stated)
inhibition at 100 µM (MDA-MB-231): > 80%
inhibition at 100 µM (HCT-116): > 80%
inhibition at 100 µM (DLD-1): > 80%
Activity (HEK293): > 80%
inhibition at 100 µM (A549): > 80%
inhibition at 100 µM (HepG2): > 80%

N#Cc1ccc(/C=C/c2cc(=O)oc3c2ccc2ccccc23)cc1
inhibition (DNA ligase 1 [1]): < 50%

CCCCNC(=S)N1C/C(=C\c2ccc(OC)cc2)C(=O)/C(=C/c2ccc(OC)cc2)C1
inhibition (DNA ligase 1 [2]): > 75%

COc1ccc(/C=C2\CN(C(=S)NCc3ccccc3)C/C(=C\c3ccc(OC)cc3)C2=O)cc1
inhibition (DNA ligase 1 [2]): > 75%

Cc1ccccc1/C=C1\CN(C(=S)NCCc2ccccc2)C/C(=C\c2ccccc2C)C1=O
inhibition (DNA ligase 1 [2]): > 75%

COc1ccc(/C=C/c2cc(=O)oc3c2ccc2ccccc23)c(OC)c1
inhibition (DNA ligase 1 [1]): < 50%

CCOC(=O)C1=C(C)NC(=S)NC1c1cc(/C=N/NC(=S)Nc2ccc(C)cc2)c(O)c(C(C)(C)C)c1 (configuration not stated)
inhibition at 100 µM (MDA-MB-231): < 80%
inhibition at 100 µM (HCT-116): < 80%
inhibition at 100 µM (DLD-1): < 80%
Activity (HEK293): < 80%
inhibition at 100 µM (A549): < 80%
inhibition at 100 µM (HepG2): < 80%

COc1ccc(/C=C/c2cc(=O)oc3c2ccc2ccccc23)cc1
inhibition (DNA ligase 1 [1]): < 50%

O=C1/C(=C/c2ccc(F)cc2)CN(C(=S)Nc2ccccc2)C/C1=C\c1ccc(F)cc1
inhibition (DNA ligase 1 [2]): > 75%

COc1cc(/C=C/c2cc(=O)oc3c2ccc2ccccc23)cc(OC)c1OC
inhibition (DNA ligase 1 [1]): < 50%

COc1cc(/C=C/c2cc(=O)oc3c2ccc2c(C)cccc23)cc(OC)c1
inhibition (DNA ligase 1 [1]): > 50%

COc1cc(/C=C/c2cc(=O)oc3c2ccc2c(C)cccc23)c(OC)c(OC)c1OC
inhibition (DNA ligase 1 [1]): < 50%

O=C1/C(=C/c2ccccc2F)CN(c2nc(-c3ccccc3)cs2)C/C1=C\c1ccccc1F
inhibition (DNA ligase 1 [2]): > 75%

O=C1/C(=C/c2ccc(F)cc2)CN(C(=S)NCc2ccccc2)C/C1=C\c1ccc(F)cc1
inhibition (DNA ligase 1 [2]): > 75%

CCOC(=O)C1=C(C)NC(=O)NC1c1cc(C)c(O)c(/C=N/NC(N)=S)c1 (configuration not stated)
inhibition at 100 µM (MDA-MB-231): > 80%
inhibition at 100 µM (HCT-116): > 80%
inhibition at 100 µM (DLD-1): > 80%
Activity (HEK293): > 80%
inhibition at 100 µM (A549): > 80%
inhibition at 100 µM (HepG2): > 80%

O=c1cc(/C=C/c2ccccc2)c2ccc3ccccc3c2o1
inhibition (DNA ligase 1 [1]): < 50%
